Assay results published in paper PMC5917001, “Counter-ion effect on antistaphylococcal activity and cytotoxicity of selected antimicrobial peptides” (Amino Acids, 2018).
Where no end group is shown, it is not given here.

What was measured:
[1] = tested on: S. aureus (29): reference (5) and clinical (24) strains; conditions: for Mean value of MIC: mean over 29 S. aureus strains (Table 5); for Mean MIC values: mean over 29 S. aureus strains, as repeated in Table 6
Method: Microbiological assays were performed using reference and clinical strains of Staphylococcus aureus. Minimal inhibitory concentrations (MIC) were determined by broth microdilution method on 96-well polystyrene plates according to Clinical and Laboratory Standards Institute (CLSI) recommendations [Clinical and Laboratory Standards Institute (CLSI) [2012]]. […] All plates were incubated for 18 h at 37 °C. […] Reference strains of S. aureus: ATCC 6538, ATCC 6538/P, ATCC 9144, ATCC 12598, and ATCC 25923 were obtained from the Polish Collection of Microorganisms (PCM, Polish Academy of Sciences, Wrocław), whereas 24 clinical strains were isolated from the patients of the Clinic of Dermatology, Venereology and Allergology (Medical University of Gdańsk). Nine strains were characterized as methicillin-resistant (MRSA). Preliminary identification and detection was conducted on the ChromID MRSA/ChromID S. aureus biplate (bioMérieux) for the simultaneous detection of S. aureus and methicillin-resistant S. aureus (MRSA). All experiments were conducted at least in triplicate.
To asses an overall activity of peptides, the mean MIC values were calculated.

[2] = prolonged storage; in words; ref Nayan Desai [2013]; cited from earlier work
[3] = tested on: human red blood cells (RBCs)
Method: Fresh human red blood cells (RBCs) with EDTA as anticoagulant were rinsed three times with phosphate-buffer saline (PBS) by centrifugation at 800 × g for 10 min and resuspended in PBS. […] Then, the stock solution of RBCs was added to reach a final volume of 100 µL with 4% concentration of erythrocytes (v/v). The control wells for 0% hemolysis and 100% hemolysis consisted of RBCs suspended in PBS and 1% of Triton X–100, respectively. Subsequently, the plates were incubated for 60 min at 37 °C and then centrifuged at 800 × g for 10 min at 4 °C (Sorvall ST 16R Centrifuge, Thermo Scientific). After centrifugation, the supernatant was carefully resuspended to new microtiter plates and the release of hemoglobin was monitored by measurement of absorbance at 540 nm (Multiskan™ GO Microplate Spectrophotometer, Thermo Scientific). All experiments were conducted in triplicate.

[4] = tested on: S. aureus 017N (MRSA); format: cell-based, Staphylococcus aureus; conditions: clinical strain, broth microdilution, 0.5 × 10^5 CFU/mL, 18 h, 37 °C, at least triplicate
Method: (§1) Microbiological assays were performed using reference and clinical strains of Staphylococcus aureus. Minimal inhibitory concentrations (MIC) were determined by broth microdilution method on 96-well polystyrene plates according to Clinical and Laboratory Standards Institute (CLSI) recommendations [Clinical and Laboratory Standards Institute (CLSI) [2012]]. For this purpose, the initial inoculums of 0.5 × 10^5 CFU/mL of bacteria were exposed to a range of concentrations of the peptides (0.5–256 µg/mL). All plates were incubated for 18 h at 37 °C. MIC was taken as the lowest concentration of the compound at which the growth of bacteria was not observed. Reference strains of S. aureus: ATCC 6538, ATCC 6538/P, ATCC 9144, ATCC 12598, and ATCC 25923 were obtained from the Polish Collection of Microorganisms (PCM, Polish Academy of Sciences, Wrocław), whereas 24 clinical strains were isolated from the patients of the Clinic of Dermatology, Venereology and Allergology (Medical University of Gdańsk). Nine strains were characterized as methicillin-resistant (MRSA). Preliminary identification and detection was conducted on the ChromID MRSA/ChromID S. aureus biplate (bioMérieux) for the simultaneous detection of S. aureus and methicillin-resistant S. aureus (MRSA). All experiments were conducted at least in triplicate.

[5] = tested on: S. aureus 051N (MRSA); format: cell-based, Staphylococcus aureus; conditions: clinical strain, broth microdilution, 0.5 × 10^5 CFU/mL, 18 h, 37 °C, at least triplicate
Method: as §1

[6] = tested on: S. aureus 002S; format: cell-based, Staphylococcus aureus; conditions: clinical strain, broth microdilution, 0.5 × 10^5 CFU/mL, 18 h, 37 °C, at least triplicate
Method: as §1

[7] = tested on: S. aureus 013S; format: cell-based, Staphylococcus aureus; conditions: clinical strain, broth microdilution, 0.5 × 10^5 CFU/mL, 18 h, 37 °C, at least triplicate
Method: as §1

[8] = tested on: S. aureus ATCC 25923; format: cell-based, Staphylococcus aureus; conditions: ATCC 25923, reference strain; broth microdilution, 0.5 × 10^5 CFU/mL, 18 h, 37 °C, at least triplicate
Method: as §1

[9] = tested on: S. aureus 045N; format: cell-based, Staphylococcus aureus; conditions: clinical strain, broth microdilution, 0.5 × 10^5 CFU/mL, 18 h, 37 °C, at least triplicate
Method: as §1

[10] = tested on: S. aureus 039N; format: cell-based, Staphylococcus aureus; conditions: clinical strain, broth microdilution, 0.5 × 10^5 CFU/mL, 18 h, 37 °C, at least triplicate
Method: as §1

[11] = tested on: S. aureus 053N; format: cell-based, Staphylococcus aureus; conditions: clinical strain, broth microdilution, 0.5 × 10^5 CFU/mL, 18 h, 37 °C, at least triplicate
Method: as §1

[12] = tested on: S. aureus ATCC 6538/P; format: cell-based, Staphylococcus aureus; conditions: reference strain, broth microdilution, 0.5 × 10^5 CFU/mL, 18 h, 37 °C, at least triplicate
Method: as §1

[13] = tested on: S. aureus 005S; format: cell-based, Staphylococcus aureus; conditions: clinical strain, broth microdilution, 0.5 × 10^5 CFU/mL, 18 h, 37 °C, at least triplicate
Method: as §1

[14] = tested on: S. aureus 017S (MRSA); format: cell-based, Staphylococcus aureus; conditions: clinical strain, broth microdilution, 0.5 × 10^5 CFU/mL, 18 h, 37 °C, at least triplicate
Method: as §1

[15] = tested on: S. aureus 015N (MRSA); format: cell-based, Staphylococcus aureus; conditions: clinical strain, broth microdilution, 0.5 × 10^5 CFU/mL, 18 h, 37 °C, at least triplicate
Method: as §1

[16] = tested on: S. aureus 024N (MRSA); format: cell-based, Staphylococcus aureus; conditions: clinical strain, broth microdilution, 0.5 × 10^5 CFU/mL, 18 h, 37 °C, at least triplicate
Method: as §1

[17] = tested on: S. aureus 051S; format: cell-based, Staphylococcus aureus; conditions: clinical strain, broth microdilution, 0.5 × 10^5 CFU/mL, 18 h, 37 °C, at least triplicate
Method: as §1

[18] = tested on: S. aureus K50S; format: cell-based, Staphylococcus aureus; conditions: clinical strain, broth microdilution, 0.5 × 10^5 CFU/mL, 18 h, 37 °C, at least triplicate
Method: as §1

[19] = tested on: S. aureus K46N; format: cell-based, Staphylococcus aureus; conditions: clinical strain, broth microdilution, 0.5 × 10^5 CFU/mL, 18 h, 37 °C, at least triplicate
Method: as §1

[20] = tested on: S. aureus ATCC 12598; format: cell-based, Staphylococcus aureus; conditions: ATCC 12598, reference strain; broth microdilution, 0.5 × 10^5 CFU/mL, 18 h, 37 °C, at least triplicate
Method: as §1

[21] = tested on: S. aureus 004N (MRSA); format: cell-based, Staphylococcus aureus; conditions: clinical strain, broth microdilution, 0.5 × 10^5 CFU/mL, 18 h, 37 °C, at least triplicate
Method: as §1

[22] = tested on: S. aureus 030N; format: cell-based, Staphylococcus aureus; conditions: clinical strain, broth microdilution, 0.5 × 10^5 CFU/mL, 18 h, 37 °C, at least triplicate
Method: as §1

[23] = tested on: S. aureus 048S; format: cell-based, Staphylococcus aureus; conditions: clinical strain, broth microdilution, 0.5 × 10^5 CFU/mL, 18 h, 37 °C, at least triplicate
Method: as §1

[24] = tested on: S. aureus ATCC 9144; format: cell-based, Staphylococcus aureus; conditions: ATCC 9144, reference strain; broth microdilution, 0.5 × 10^5 CFU/mL, 18 h, 37 °C, at least triplicate
Method: as §1

[25] = tested on: S. aureus K19N; format: cell-based, Staphylococcus aureus; conditions: clinical strain, broth microdilution, 0.5 × 10^5 CFU/mL, 18 h, 37 °C, at least triplicate
Method: as §1

[26] = tested on: S. aureus 033N; format: cell-based, Staphylococcus aureus; conditions: clinical strain, broth microdilution, 0.5 × 10^5 CFU/mL, 18 h, 37 °C, at least triplicate
Method: as §1

[27] = tested on: S. aureus 001N (MRSA); format: cell-based, Staphylococcus aureus; conditions: clinical strain, broth microdilution, 0.5 × 10^5 CFU/mL, 18 h, 37 °C, at least triplicate
Method: as §1

[28] = tested on: S. aureus ATCC 6538; format: cell-based, Staphylococcus aureus; conditions: ATCC 6538, reference strain; broth microdilution, 0.5 × 10^5 CFU/mL, 18 h, 37 °C, at least triplicate
Method: as §1

[29] = tested on: S. aureus 060S; format: cell-based, Staphylococcus aureus; conditions: clinical strain, broth microdilution, 0.5 × 10^5 CFU/mL, 18 h, 37 °C, at least triplicate
Method: as §1

[30] = tested on: S. aureus 002N; format: cell-based, Staphylococcus aureus; conditions: clinical strain, broth microdilution, 0.5 × 10^5 CFU/mL, 18 h, 37 °C, at least triplicate
Method: as §1

[31] = tested on: S. aureus 043SC (MRSA); format: cell-based, Staphylococcus aureus; conditions: clinical strain, broth microdilution, 0.5 × 10^5 CFU/mL, 18 h, 37 °C, at least triplicate
Method: as §1

[32] = tested on: S. aureus 001S (MRSA); format: cell-based, Staphylococcus aureus; conditions: clinical strain, broth microdilution, 0.5 × 10^5 CFU/mL, 18 h, 37 °C, at least triplicate
Method: as §1

| Substance | Mean value of MIC [1] [µg/mL] | Mean MIC values [1] [µg/mL] | MIC [4] [µg/mL] | MIC [5] [µg/mL] | MIC [6] [µg/mL] | MIC [7] | MIC [8] [µg/mL] | MIC [9] [µg/mL] | MIC [10] [µg/mL] | MIC [11] [µg/mL] | MIC [12] [µg/mL] | MIC [13] | MIC [14] [µg/mL] | MIC [15] [µg/mL] | MIC [16] | MIC [17] [µg/mL] | MIC [18] [µg/mL] | MIC [19] [µg/mL] | MIC [20] [µg/mL] | MIC [21] [µg/mL] | other results |
| --- | --- | --- | --- | --- | --- | --- | --- | --- | --- | --- | --- | --- | --- | --- | --- | --- | --- | --- | --- | --- | --- |
| GIGKFLKKAKKFGKAFVKILKK-NH2 [Pexiganan AcO^−] | 7.1 |  |  |  |  |  |  |  |  |  |  |  |  |  |  |  |  |  |  |  | stability of the salt form [2]: the most stable even during prolonged storage; hemolysis of RBCs at the mean MIC value ([3]; human RBCs, at the mean MIC value, in words): ignorable |
| GLFDVIKKVASVIGGL-NH2 [Citropin 1.1 TFA^−] | 13.0 | 13.0 | 8 | 8 | 16 | 2 µg/mL | 32 | 16 | 16 | 16 | 16 | 2 µg/mL | 4 | 16 | 2 µg/mL | 4 | 2 | 16 | 16 | 16 | MIC [22]: 16 µg/mL; MIC [23]: 16 µg/mL; MIC [24]: 32 µg/mL; MIC [25]: 16 µg/mL; MIC [26]: 16 µg/mL; MIC [27]: 16 µg/mL; MIC [28]: 16 µg/mL; MIC [29]: 2 µg/mL; MIC [30]: 16 µg/mL; MIC [31]: 8 µg/mL; MIC [32]: 16 µg/mL |
| FLPLIGRVLSGIL-NH2 [Temporin A Cl^−] | 5.7 | 5.7 | 8 | 8 | 4 | 4 µg/mL | 4 | 8 | 4 | 4 | 8 | 4 µg/mL | 8 | 8 | 4 µg/mL | 8 | 4 | 8 | 4 | 4 | MIC [22]: 4 µg/mL; MIC [23]: 4 µg/mL; MIC [24]: 8 µg/mL; MIC [25]: 8 µg/mL; MIC [26]: 4 µg/mL; MIC [27]: 8 µg/mL; MIC [28]: 4 µg/mL; MIC [29]: 4 µg/mL; MIC [30]: 4 µg/mL; MIC [31]: 8 µg/mL; MIC [32]: 4 µg/mL |
| FLPLIGRVLSGIL-NH2 [Temporin A] |  |  |  |  |  |  |  |  |  |  |  |  |  |  |  |  |  |  |  |  | MIC range among strains ([1]; range over all S. aureus strains and the salts of the peptide): 2 to 8 µg/mL; hemolysis ([3]; at 256 µg/mL, human RBCs 4% (v/v) in PBS, 60 min, 37 °C, absorbance 540 nm, 100% = 1% Triton X-100, triplicate): ≤ 4%; hemolysis of RBCs ([3]; human RBCs, in words): almost undetectable |
| KWKLFKKIGAVLKVL-NH2 [CAMEL TFA^−] | ≤ 3.5 | ≤ 3.5 | 4 | 4 | 4 | ≤ (≤ alone stands for MIC ≤ 0.25 µg/mL) | 8 | 4 | 4 | 4 | 4 | ≤ (≤ alone stands for MIC ≤ 0.25 µg/mL) | 2 | 4 | ≤ (≤ alone stands for MIC ≤ 0.25 µg/mL) | 2 | 1 | 4 | 4 | 4 | MIC [22]: 4 µg/mL; MIC [23]: 4 µg/mL; MIC [24]: 8 µg/mL; MIC [25]: 4 µg/mL; MIC [26]: 4 µg/mL; MIC [27]: 4 µg/mL; MIC [28]: 2 µg/mL; MIC [29]: 2 µg/mL; MIC [30]: 4 µg/mL; MIC [31]: 4 µg/mL; MIC [32]: 4 µg/mL |
